Experimental data as given in patent US11718650B2, “Immunogenic peptides and their use in immune disorders” (IMCYSE SA, priority 2006, dated 2023).
Where two headings read alike, the source gives them in different places. Non-standard residues stand in square brackets, D forms with d. No end group written: not given here.

Experiments:
CD4+CD25(−) T cells = assay: bystander suppression of anti-CD3 activated CD4+CD25(−) T cells; assay type: cell-based, mouse; conditions: 72 h, 2 concentrations (2mM, 4 mM)
Description: Bystander suppression assays. Target CD4+CD25− T cells and T helper clones were labelled with 125nM CFSE (Molecular Probes) for 15 minutes in PBS at 37° C. The reaction was stopped by washing the cells with PBS containing 30% FBS. These cells (3×10^5) were cocultured with 10^5 cytotoxic CD4+ T cell clones and cell depleted splenocytes with 1 μg/ml anti-CD3 antibody (eBioscience), For suppression of T helper clones, 10^5 cells were co-cultured with the same number of cytotoxic cells and T cell depleted splenocytes. After 48 h or 72 hours, cells were collected and analysed by flow cytometry.
First, the capacity of Tregs was assayed to suppress the proliferation of CD4+CD25(−) T cells after anti-CD3 activation in the presence of antigen-presenting cells. […] This effect was even more pronounced at 72 h for the second T cell clone (lower middle panel). […] The control experiment in which Treg was replaced by an identical number of unlabeled CD4+CD25(−) T cells (right panels) eliminated a possible artefact related to variable numbers of total cells in the culture medium.
Next, the kinetics of suppression were analysed. In the experiments shown in FIG. 14b, it can be seen that 48 and 70% of CFSE-labelled CD4+CD25(−) T cells express Annexin V after 18 and 24 h co-incubation with a cytolytic Treg (R3TB7), respectively, using the same assay system as in FIG. 14a. […]

WEHI cells [1] = assay: apoptosis of peptide-loaded WEHI cells by cytolytic T cell clones, with inhibitors; assay type: cell-based, mouse; conditions: p21-35 loaded WEHI cells and a cytolytic T cell clone
Description: For inhibition of GZ-B activity, Z-AAD-CMK (Calbiochem) or 3,4-dichloroiso-coumarin (DCIC) (SIGMA) were added at indicated concentrations during all the co-culture period.
Experiments were carried out with p21-35-loaded CD11c dendritic (FIG. 13b: left panel) or WEHI cells (FIG. 13b: right panel). Upon incubation with R3TB7 virtually all dendritic cells (DC) or Wehi cells were induced into apoptosis as measured by caspase 3 activation.
Apoptosis can be induced by either the Fas-FasL pathway or by secretion of cytotoxic granules containing granzymes. Attempts were made to inhibit each of these pathways. Addition of increasing concentrations of an antibody towards FasL, or of granzyme B inhibitors, to a cell culture containing p21-35 loaded WEHI cells and a cytolytic T cell clone, increased the number of surviving WEHI cells in a dose-dependent manner (FIG. 13c). In a number of experiments it was shown that the anti-FasL antibody restored up to 80% of WEHI cell survival.
To further ascertain that APC lysis required direct contact with cytolytic T cells through MHC class II presentation of p21-35, an experiment was carried out in which two identical populations of Wehi cells were loaded with either p21-35 or with an irrelevant peptide (p71-85). These two populations could be distinguished by differential CFSE labelling. It can be seen from FIG. 13e that, while WEHI cells presenting p21-35 were fully lysed, only 40% of p71-85-loaded cells were affected.

Patients = assay: patients with birch pollen and apple allergy treated with peptide; assay type: in vivo, human; conditions: 3 SC injections
Text: Patients presenting with allergic symptoms upon exposure to birch pollen together with an oro-pharyngeal allergy to ingestion of apple and treated by 3 SC injections of peptide CGPC […] [SEQ ID.

dendritic cells = assay type: cell-based
[2] = test system: polyclonal CD4+CD25− cells; assay: bystander suppression assay with CD4+CD25− cells from EAE animals; assay type: cell-based, mouse; conditions: 20 μg SC on aluminium hydroxide, three injections
Description: Groups of C57BL/6 mice are immunised subcutaneously (20 μg) with peptide (CHGS […] [SEQ ID. NO: 32], which contains the sequence motif C-X(2)-S) or control peptide ([…] [SEQ ID. NO: 33]) adsorbed onto aluminium hydroxide, Three injections are performed at 2-week intervals. Ten days after the last immunisation, mice are sacrificed and CD4+ T cells (2×10^6 cells) are prepared from the spleen using magnetic beads. CD4+ T cells are then stimulated in vitro by the MOG T cell epitope (20 μg/ml) presented by adherent spleen cells (2×10^6 cells).
After four re-stimulations, a T cell line is tested in a bystander suppression assay with, as target cells, polyclonal CD4+CD25− cells obtained from animals in which EAE (Experimental autoimmune encephalomyelitis) was effective.

C57BL/6 mice = assay: prevention of multiple sclerosis by peptide immunisation; assay type: in vivo, mouse; conditions: 5 injections 20 μg in IFA at 14 days interval before disease induction
Description: In the model group, 3 C57BL/6 mice received, at day 0, SC injection of 100 μg MOG peptide/400 μg Mycobacterium butyricum in CFA and ip injection of 300 ng Bortetella pertussis in NaCl. At day +2, a second injection of B. pertussis was given.
In the prevention group, 5 C57BL/6 mice are immunised by 5 injections with 20 μg CSMOG peptide (CHGS […] [SEQ ID. NO: 32]), which contains the sequence motif C-X(2)-S, in IFA at 14 days interval before disease induction as in the model group. Control experiments are performed with the peptide [SEQ ID. NO: 33] lacking the motif at its N-terminus.
Scores were established as 0: no disease, 1: limp tail, 2: limp tail and loss of weight higher than 10%, 3: partial paralysis of hind limbs.

NOD mice = assay: spontaneous insulin-dependent diabetes in NOD mice, GAD65 derived peptide; assay type: in vivo, mouse
Text: Non-obese diabetes (NOD) mice constitutes a suitable animal model for spontaneous insulin-dependent diabetes.
Adoptive transfer of Treg at the age of 2 weeks in NOD mice, namely before the onset of insulitis (3 weeks of age) is shown to fully prevent the onset of diabetes.
Direct immunisation of NOD mice with the peptide CRLC […] [SEQ ID.
Immunisation with peptide CRLC […] [SEQ ID.

polyclonal CD4 cells = assay: apoptosis of polyclonal CD4 cells from peptide 524-543 immunised NOD mice; assay type: cell-based, mouse; conditions: APC loaded with peptide 524-543
Text: NOD mice are immunised with peptide containing the thioredoxin consensus sequence in IFA (incomplete Freund adjuvans) from the age of 2 weeks. T cells are expanded in vitro to generate clones with regulatory properties.
The table in FIG. 23 represents the percentage of double positive cells (dead cells) after substraction of background values obtained without the regulatory population.

CD4+ T cell = CD4+ T cell proliferation elicited by single amino acid p21-35 mutants (IP immunisation in alum); conditions: mouse, in vivo
Description: Based on findings showing that regulation can be more readily achieved with analogues of T cell epitopes, the capacity of various single amino acid p21-35 mutants to elicit CD4+ T cell after IP immunisation in alum was determined. […] The mutated form of mp21-35 (mp21-35Asn) was therefore use in the remainder of the experiments in this Example.

MHC II cleft = assay: affinity for the MHC II cleft; assay type: binding
BALB/c mice = conditions: mouse, in vivo
G221N = assay: peptide processing assay with effector T cell clone G221N; assay type: cell-based, mouse
WEHI cells [3] = assay: Wehi cell apoptosis by the G121 regulatory T cell clone with various forms of peptide; assay type: cell-based, mouse
spleen CD4+ T cells = conditions: mouse, in vivo, ip

Compound: O=C(O)CN(CCOCCOCCN(CC(=O)O)CC(=O)O)CC(=O)O [EGTA]
- inhibition of the suppression of bystander T cells (CD4+CD25(−) T cells): Basically no inhibition
- restoration of WEHI cell survival (WEHI cells [1]): only partial restoration of Wehi cell survival

Compound: (CGPC)D-isomer LRAVESYLLAH ([dC]G[dP][dC]LRAVESYLLAH; cysteine pairing not given here) [SEQ ID. NO: 47]
- reaction to pollen exposure or apple contact (Patients): failed to react to either exposure to pollen or contact with apple
- apoptosis of dendritic cells by CD4+ T cells of treated subjects (dendritic cells; dendritic cells loaded with the Mal d 1 antigen): resulted in dendritic cell apoptosis
- apoptosis of dendritic cells by CD4+ T cells of treated subjects (dendritic cells; dendritic cells presenting the Bet v 1 antigen, three SC injections of 50 μg on alum): induced apoptosis of dendritic cells presenting the Bet v 1 antigen

Compound: CHGS YRSPFSRVVHLYR (CHGSYRSPFSRVVHLYR; reducing motif fused to MOG (Myelin Oligodendrocyte Glycoprotein) peptide) [SEQ ID. NO: 32]
- capacity of T cell line from immunised animals to induce death in target cells [2]: have the capacity to induce death in target cells
- development of the syndrome (clinical score) (C57BL/6 mice): completely abolishes the development of the syndrome

Compound: CRLC KVAPVIKARMM (CRLCKVAPVIKARMM; modified fragment of glutamic acid decarboxylase (GAD65)) [SEQ ID. NO: 35]
- diabetes and insulitis, suppression by immunisation (NOD mice; after 15 weeks of age): suppress diabetes and insulitis
- diabetes and insulitis, prevention by direct immunisation (NOD mice; from the age of 2 weeks): fully prevent diabetes and lesions of insulitis
- apoptosis induced by polyclonal cells from immunised mice (polyclonal CD4 cells): induce apoptosis in polyclonal CD4 cells

Compound: IIe28Asn: IIe28Asn substitution of Der p 2 peptide p21-35 (CHGSEPCNIHRGKPF; UniProt P49278 38-52, looked up, fragment I28N)
- capacity to induce T cell proliferation (CD4+ T cell): only slightly reduced
- affinity for the MHC II cleft versus natural p21-35 (MHC II cleft): lower affinity

Compound: QYIKANSKFIGITELGGCHGSEPCIIHRGKPF [mp21-35]
- suppression of airway inflammation and hyperreactivity (BALB/c mice): even more effective in suppressing airway inflammation and hyperreactivity
- requirement for internalisation, fusion with and acidification of late endosomes (G221N): required internalisation into antigen-presenting cells
- requirement for peptide processing (G221N): had to be processed for efficient presentation
- efficiency in inducing Wehi cell apoptosis in the presence of the G121 Treg, as compared to p21-35 (WEHI cells [3]): 100 fold
- Der p 2-induced proliferation of spleen CD4+ T cells (spleen CD4+ T cells): significant reduction
